Reference: patent US4242335A, “Novel 17α-aryl-steroids” (Roussel Uclaf, priority 1977, dated 1980)

Key:
[1] = target: T1, uterine reception of progesterone (Oryctolagus cuniculus, UniProt P06186); assay: Progestomimetic activity by hormonal receptor method (displacement of tritiated product R in rabbit uterus cytosol); format: binding; details: for progestomimetic activity (in words): conclusion from Table I; for relative affinity of the test product (ARL), progestomimetic: rabbit uterus cytosol, 0° C., 2 hours, progesterone = 100; for activity weaker than progesterone: from Table I
T1 construct: from tissue; host or cells: uterus cytosol (105,000 g supernatant) of immature rabbits primed with estradiol
T1 sequence (P06186 1-930): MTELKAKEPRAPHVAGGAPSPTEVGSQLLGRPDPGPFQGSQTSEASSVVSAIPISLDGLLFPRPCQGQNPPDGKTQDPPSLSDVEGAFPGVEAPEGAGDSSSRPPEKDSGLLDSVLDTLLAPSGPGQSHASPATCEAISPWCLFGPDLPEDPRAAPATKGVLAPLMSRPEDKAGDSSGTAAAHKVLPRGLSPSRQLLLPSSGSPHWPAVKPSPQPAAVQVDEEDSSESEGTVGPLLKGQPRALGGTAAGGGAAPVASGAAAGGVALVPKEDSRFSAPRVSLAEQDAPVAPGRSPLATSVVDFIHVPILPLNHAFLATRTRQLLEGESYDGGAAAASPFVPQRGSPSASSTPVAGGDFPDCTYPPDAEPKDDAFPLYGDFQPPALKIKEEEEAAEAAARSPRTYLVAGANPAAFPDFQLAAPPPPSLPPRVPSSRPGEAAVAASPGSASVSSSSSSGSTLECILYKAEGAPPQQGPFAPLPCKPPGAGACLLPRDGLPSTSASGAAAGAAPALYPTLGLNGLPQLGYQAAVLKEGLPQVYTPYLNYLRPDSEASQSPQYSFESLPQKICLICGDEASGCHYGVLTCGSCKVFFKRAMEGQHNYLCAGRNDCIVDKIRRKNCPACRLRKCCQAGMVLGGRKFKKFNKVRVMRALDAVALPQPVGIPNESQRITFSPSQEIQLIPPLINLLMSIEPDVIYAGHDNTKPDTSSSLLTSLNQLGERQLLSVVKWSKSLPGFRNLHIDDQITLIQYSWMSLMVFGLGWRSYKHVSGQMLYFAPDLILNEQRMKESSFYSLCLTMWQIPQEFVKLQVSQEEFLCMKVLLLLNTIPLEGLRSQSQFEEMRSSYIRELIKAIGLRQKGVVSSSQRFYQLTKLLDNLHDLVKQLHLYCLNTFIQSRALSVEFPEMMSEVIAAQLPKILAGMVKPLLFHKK
Protocol: The progestomimetic activity was determined by the hormonal receptor method of Raynaud et al [J. Ster. Biochem., Vol. 6 (1975), p-615-622 and Physiology and Genetics of Reproduction, part A (1975), p. 143-160]. Immature rabbits received subcutaneously 25γ of estradiol and 5 days later, the animals were sacrificed and the uterus was removed and homogenized in a buffered solution of 10 mM of tromethamine, 0.25 M of saccharose and a pH of 7.4 with hydrochloric acid. The homogenate was centrifuged at 105,000 g during one hour and the surnageant or cytosol was adjusted to a dilution of 1/50 (weight/volume). The resulting solution was incubated at 0° C. for 2 hours in tubes with the same volume of cytosol with a fixed concentration of tritiated 17,21-dimethyl-19-nor-Δ^4,9 -pregnadiene-3-20-dione (designated as tritiated Product R) in the presence or not of an increasing concentration of radioinactive 17,21-dimethyl-19-nor-Δ^4,9 -pregnadiene-3,20-dione (designated as cold product R) or progesterone or the test product. The radioactivity of the tritiated product R was determined after 2 hours by the technique of adsorption on carbon-dextran (1.25-0.625%). The curves representing the percentage of tritiated product R as a function of the log of the concentration, of cold product R, of progresterone or the test products and the I50 straight line parallel to the axis of the abcissess and ordinates [formula] were ploted. B/T max. is the percentage of tied tritiated product R when the product is not added and B/T min. is the percentage of tied tritiated product R when the maximum amount of cold product R is added. The intersections of these I50 straight lines and the curves permit the determination of the values: CP and CX: CP - concentration of cold progesterone which inhibits by 50% the fixation of the tritiated product R and CX - concentration of test product which inhibits by 50% the fixation of the tritiated product R. The relative affinity of the test product (ARL) was determined by the formula [formula] and the results are reported in Table I.

[2] = target: T2, prostatic reception of testosterone (Rattus norvegicus, UniProt P15207); assay: Androgenic activity by hormonal receptor method (displacement of tritiated product R in rat prostate cytosol); format: binding; details: for relative affinity of the test product (ARL), androgenic: castrated male rat prostate cytosol, 0° C., 2 hours, testosterone = 100; for affinity for prostatic reception of testosterone (in words) / androgenic activity (in words): conclusion from Table II
T2 construct: The prostate was recovered from male rats castrated 24 hours earlier and was homogenized; from tissue; host or cells: prostate cytosol (105,000 g supernatant) of male rats castrated 24 hours earlier
T2 sequence (P15207 1-902): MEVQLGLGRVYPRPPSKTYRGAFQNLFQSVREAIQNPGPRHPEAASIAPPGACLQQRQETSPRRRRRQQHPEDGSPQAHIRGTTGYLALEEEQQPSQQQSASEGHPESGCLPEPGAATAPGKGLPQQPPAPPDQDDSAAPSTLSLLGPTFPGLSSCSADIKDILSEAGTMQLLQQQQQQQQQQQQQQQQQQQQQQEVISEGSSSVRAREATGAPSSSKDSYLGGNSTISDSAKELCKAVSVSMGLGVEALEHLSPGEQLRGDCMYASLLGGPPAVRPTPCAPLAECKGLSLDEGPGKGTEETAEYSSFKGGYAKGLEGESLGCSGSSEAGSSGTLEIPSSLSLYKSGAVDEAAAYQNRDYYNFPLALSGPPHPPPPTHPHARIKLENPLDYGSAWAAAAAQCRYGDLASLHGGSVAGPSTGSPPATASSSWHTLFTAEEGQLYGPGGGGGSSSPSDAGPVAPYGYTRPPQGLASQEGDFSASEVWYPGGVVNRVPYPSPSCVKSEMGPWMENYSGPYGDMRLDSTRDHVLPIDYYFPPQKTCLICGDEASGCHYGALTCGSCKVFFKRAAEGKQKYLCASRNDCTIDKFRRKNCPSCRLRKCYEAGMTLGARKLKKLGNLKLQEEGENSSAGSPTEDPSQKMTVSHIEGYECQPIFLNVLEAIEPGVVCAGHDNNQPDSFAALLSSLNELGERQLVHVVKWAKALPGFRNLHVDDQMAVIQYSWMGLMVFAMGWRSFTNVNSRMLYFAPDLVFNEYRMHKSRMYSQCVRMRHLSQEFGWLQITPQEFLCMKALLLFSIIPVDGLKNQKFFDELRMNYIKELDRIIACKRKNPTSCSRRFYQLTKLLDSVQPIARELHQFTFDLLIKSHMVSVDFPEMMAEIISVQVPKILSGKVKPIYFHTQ
Protocol: This test also used the method of Raynaud et al discussed above. The prostate was recovered from male rats castrated 24 hours earlier and was homogenized in a buffer containing 10 mM of tromethamine and 0.25 M of saccharose and sufficient hydrochloric acid for a pH of 7.4 The homogenate was centrifuged at 105,000 g for one hour and the surnageant liquid or cytosol was adjusted to a dilution of 1/5 (weight/volume).
The radioactivity of the tied tritiated product was determined after 2 hours by absorption technique on carbondextran (1.25%-0.625%). […] B/T max. is the percentage of tied tritiated product R when the product is not added and B/T min. is the percentage of tied tritiated product R when the maximum amount of cold product R is added.

[3] = test system: proliferation of endometric lacework (uterus); assay: In vivo progestomimetic activity, Clauberg test on immature rabbits; set-up: species or system rabbit; details: for progestomimetic activity in vivo (in words): compared with ethynylnortestosterone, Table III; for endometrial proliferation, MacPhail Units: subcutaneous, 5 days
Protocol: The progestomimetic activity of products A, B and C were determined by the Clauberg test on immature rabbits previously sensibilized by subcutaneous administration of estradiol for 5 days at a daily dose of 5 μg. The test products were used in solution in olive oil containing 5% of benzyl alcohol and were subcutaneously administered for 5 days at different doses. The animals were killed on the 6th day and the uterus was removed to determine the proliferation of endometric lacework which is characteristic of progestomimetic activity. The results were compared with ethynylnortesterone administered in the same method in the same solvent. The results were expressed in MacPhail units in Table III.

Compound | affinity for specific uterine reception of progesterone (in words) ([1]; compared with progesterone) | progestomimetic activity (in words) [1] | relative affinity of the test product (ARL), progestomimetic [1] | relative affinity of the test product (ARL), androgenic [2] | affinity for prostatic reception of testosterone (in words) [2] | androgenic activity (in words) [2] | progestomimetic activity in vivo (in words) [3] | endometrial proliferation, MacPhail Units ([3]; dose 100 γ) [MacPhail Units] | endometrial proliferation, MacPhail Units ([3]; dose 500 γ) [MacPhail Units] | endometrial proliferation, MacPhail Units ([3]; dose 2500 γ) [MacPhail Units] | activity weaker than progesterone ([1]; compared with progesterone) | endometrial proliferation, MacPhail Units ([3]; dose 1 mg) [MacPhail Units] | endometrial proliferation, MacPhail Units ([3]; dose 2 mg) [MacPhail Units] | endometrial proliferation, MacPhail Units ([3]; dose 200 γ) [MacPhail Units]
C[C@]12CC[C@H]3[C@@H](CCC4=CC(=O)CC[C@@H]43)[C@@H]1CC[C@@]2(O)c1ccccc1 [Product A, 17α-phenyl-Δ^4-estrene-17β-ol-3-one] | comparable to that of progesterone | progestomimetics | 80 | 0.3 | practically devoid of an affinity | devoid of adrogenic activity | progestomimetic activity greater than ethynylnortestosterone | 2 | 2.7 | 3 |  |  |  | 
C[C@]12CCC3=C4CCC(=O)C=C4CC[C@H]3[C@@H]1CC[C@@]2(O)c1ccccc1 [Product B, 17α-phenyl-Δ^4,9-estradiene-17β-ol-3-one] |  | progestomimetics | 37 | 0.2 | practically devoid of an affinity | devoid of adrogenic activity | progestomimetic activity greater than ethynylnortestosterone |  |  |  | about 3 times | 2.8 | 3.0 | 1
C[C@]12C=CC3=C4CCC(=O)C=C4CC[C@H]3[C@@H]1CC[C@@]2(O)c1ccccc1 [Product C, 17α-phenyl-Δ^4,9,11-estratriene-17β-ol-3-one] |  | progestomimetics | 27 | ≤ 0.1 | practically devoid of an affinity | devoid of adrogenic activity | about the same order of activity as ethynylnortestosterone |  |  |  | about 3 times | 1.8 | 2.9 | 0.8
C#C[C@]1(O)CC[C@H]2[C@@H]3CCC4=CC(=O)CC[C@@H]4[C@H]3CC[C@@]21C [ethynylnortestosterone, reference compound] |  |  |  |  |  |  |  | 1.2 | 1.5 | 2 |  |  |  | 
